A word on the IC50: it is the point on the concentration scale where inhibition reaches its midpoint. As a reminder, the inhibition is how much of the control response was suppressed.

In US10851108B2, “Substituted bicyclic heterocyclic compounds” (BRISTOL-MYERS SQUIBB COMPANY, priority 2016, dated 2020) one finds IC50 and inhibition data, which are given here for six compounds.

Common to all, as to assay type: cell-based
The target of one data set is hROMK (human Kir1.1) (Homo sapiens (Human), UniProt P48048). Nature of the data set: Thallium Flux Assay. Particulars: CHO T-Rex hROMK stable cell line, 10-point concentration response; read-out: hROMK Th+ Flux IC50. The method in brief: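 CHO T-Rex cells, doxycycline-induced (0.5 μg/ml) one day before, FluxOR dye-loaded; compounds 30 min, then Tl+ stimulus (final 3 mM Tl2SO4, 0.15 mM K2SO4) with ouabain in chloride-free buffer. Fluorescence 488/525 nm for 90 s; IC50 from 10-point curve; DMSO 0.5 or 1%.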

In another data set the target is hROMK (Homo sapiens (Human), UniProt P48048). Nature of the data set: ROMK Manual Patch Clamp Assay. Particulars: whole-cell manual patch clamp, hROMK expressing cells; read-out: hROMK EP IC50. Here is the method: ROMK Manual Patch Clamp Assay
Cell culture conditions: Cells were maintained in conditions similar to those for Thallium flux assay. hROMK channel expression was induced by adding 0.6 μg/ml of Doxycycline 16-24 hrs prior to the experiments. On the day of experiment, the cells were dissociated using Versene, resuspended in growth media and plated onto coverslips 15 minutes prior to use.
Electrophysiology: The coverslip plated with cells was placed in the experiment chamber perfused with bath solution composed of (in mM): 135 NaCl, 5 KCl, 2 CaCl2, 1 MgCl2, 10 HEPES, 5 Glucose (pH 7.4). Patch pipettes with resistance between 2-5 Megaohms, when filled with a solution containing (in mM): 135 KCl, 1 EGTA, 1 MgCl2, 10 HEPES, 2 Na2ATP (pH 7.3), were used to form gigaseals. The cells were voltage clamped at −75 mV in whole-cell configuration using an Axopatch 200b or Multiclamp 700b (Molecular Devices) amplifier controlled by pClamp Software (Molecular Devices). The current was recorded by applying a voltage step to −120 mV every 10 seconds. For each compound, 4-6 concentrations were applied for 3-8 minutes in a successive manner starting with the lowest concentration. At the end of the experiment, the cells were perfused with bath solution containing 2 mM Ba^2+ to isolate the contribution of hROMK current.
Data analysis: Raw current values (5 traces each for control, different compound concentration and Ba^2+ treatment groups) were exported from Clampfit into Microsoft Excel where the current remaining after application of Ba^2+ was subtracted from raw current to obtain hROMK specific current. These hROMK current values (average of 5 traces for each group) were then imported into a custom made template to generate a concentration response curve, which was subsequently fitted with a four parameter equation to calculate the IC50 value of the test compound.
The data in Table 4 is reported with two significant figures.

In another data set the target is hERG (Homo sapiens (Human), UniProt Q12809). The data set is described as follows: hERG Manual Patch Clamp Assay. Particulars: human, HEK 293 cells stably expressing hERG channels; for inhibition at 1 µM: pH 7.4, 1 μM, read-out: hERG EP IC50 (% Inhibition at 1 μM); for inhibition at 3 µM: pH 7.4, 3 uM, read-out: hERG EP % Inhibition at 3 uM; for inhibition at 10 µM: pH 7.4, 10 uM, read-out: hERG EP % Inhibition at 10 uM. As to the method: hERG Manual Patch Clamp Assay
hERG electrophysiology assay: The experimental compounds were assessed for hERG activity on HEK 293 cells stably expressing hERG channels using patch clamp technique. Coverslips plated with hERG expressing cells were placed in the experimental chamber and were perfused with a solution composed of (in mM): 140 NaCl, 4 KCl, 1.8 CaCl2, 1 MgCl2, 10 Glucose, 10 HEPES (pH 7.4, NaOH) at room temperature. Borosilicate patch pipettes had tip resistances of 2-4 Mohms when filled with an internal solution containing: 130 KCl, 1 MgCl2, 1 CaCl2, 10 EGTA, 10 HEPES, 5 ATP-K2 (pH 7.2, KOH). The cells were clamped at −80 mV in whole cell configuration using an Axopatch 200B (Axon instruments, Union City, Calif.) patch clamp amplifier controlled by pClamp (Axon instruments) software. Upon formation of a gigaseal, the following voltage protocol was repeatedly (0.05 Hz) applied to record tail currents: depolarization step from −80 mV to +20 mV for 2 seconds followed by a hyperpolarization step to −65 mV (3 seconds) to elicit tail currents. Compounds were applied after stabilization of tail current. First, tail currents were recorded in presence of extracellular solution alone (control) and subsequently, in extracellular solution containing increasing compound concentrations. Each compound concentration was applied for 2-5 minutes. The percentage inhibition at each concentration was calculated as reduction in peak tail current with respect to the peak tail current recorded in the presence of control solution. Data analysis was performed in a custom made template. The percent inhibitions at different concentrations were plotted to obtain a concentration response curve, which was subsequently fitted with a four parameter equation to calculate hERG IC50 value.
A lower hERG % Inhibition value indicates less inhibition of the hERG current
On the technique in general: The hERG channel carries a current that helps repolarise heart muscle cells.

hERG, sequence (Q12809 whole entry, the tested form may be a part): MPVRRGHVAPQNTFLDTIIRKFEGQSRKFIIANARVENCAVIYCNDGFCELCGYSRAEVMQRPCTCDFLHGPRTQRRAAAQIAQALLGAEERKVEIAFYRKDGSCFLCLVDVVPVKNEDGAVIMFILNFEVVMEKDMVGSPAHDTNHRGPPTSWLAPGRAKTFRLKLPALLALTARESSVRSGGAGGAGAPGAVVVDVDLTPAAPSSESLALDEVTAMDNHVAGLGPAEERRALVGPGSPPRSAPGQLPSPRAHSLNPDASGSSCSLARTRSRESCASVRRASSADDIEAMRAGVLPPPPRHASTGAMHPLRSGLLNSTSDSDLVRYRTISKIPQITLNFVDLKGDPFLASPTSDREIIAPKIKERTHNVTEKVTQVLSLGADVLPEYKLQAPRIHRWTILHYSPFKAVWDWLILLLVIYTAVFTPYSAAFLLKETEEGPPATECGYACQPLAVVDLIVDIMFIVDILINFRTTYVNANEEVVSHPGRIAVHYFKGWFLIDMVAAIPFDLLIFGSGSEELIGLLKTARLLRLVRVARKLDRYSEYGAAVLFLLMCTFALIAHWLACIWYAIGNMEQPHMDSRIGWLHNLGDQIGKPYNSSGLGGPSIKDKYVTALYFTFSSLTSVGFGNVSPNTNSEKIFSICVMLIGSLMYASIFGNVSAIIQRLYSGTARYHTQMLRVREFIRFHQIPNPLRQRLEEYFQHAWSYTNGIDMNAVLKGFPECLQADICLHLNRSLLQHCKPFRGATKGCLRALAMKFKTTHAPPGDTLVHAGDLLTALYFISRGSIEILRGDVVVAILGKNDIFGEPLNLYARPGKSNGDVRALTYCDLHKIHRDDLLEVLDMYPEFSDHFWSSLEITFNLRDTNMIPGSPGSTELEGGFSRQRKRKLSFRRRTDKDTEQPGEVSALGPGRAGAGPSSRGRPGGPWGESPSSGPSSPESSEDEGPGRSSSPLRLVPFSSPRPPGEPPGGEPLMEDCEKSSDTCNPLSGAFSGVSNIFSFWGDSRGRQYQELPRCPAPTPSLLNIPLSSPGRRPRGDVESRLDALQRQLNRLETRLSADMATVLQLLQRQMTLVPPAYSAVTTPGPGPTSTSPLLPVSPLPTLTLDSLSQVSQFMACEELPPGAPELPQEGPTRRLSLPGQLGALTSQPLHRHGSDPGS
hROMK (human Kir1.1), sequence (P48048 whole entry): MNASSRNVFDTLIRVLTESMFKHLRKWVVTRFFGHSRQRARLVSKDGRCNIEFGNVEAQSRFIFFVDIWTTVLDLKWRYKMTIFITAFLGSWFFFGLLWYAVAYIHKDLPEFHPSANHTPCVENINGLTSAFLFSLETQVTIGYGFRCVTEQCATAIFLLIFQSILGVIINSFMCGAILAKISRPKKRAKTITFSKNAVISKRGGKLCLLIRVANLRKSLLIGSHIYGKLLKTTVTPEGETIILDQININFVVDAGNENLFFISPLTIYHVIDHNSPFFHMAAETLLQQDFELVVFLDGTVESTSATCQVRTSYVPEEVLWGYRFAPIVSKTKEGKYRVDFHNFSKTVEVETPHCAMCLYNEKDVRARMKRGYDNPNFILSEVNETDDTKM
hROMK, sequence (P48048 whole entry): as above

For the compound `Cc1cn(-c2ncc3c(n2)CCN(CC(O)c2ccc4c(c2C)COC4=O)C3)cn1` (single isomer, unassigned) [Example 58-I, 5-(1-hydroxy-2-(2-(4-methyl-1H-imidazol-1-yl)-7,8-dihydropyrido[4,3-d]pyrimidin-6(5H)-yl)ethyl)-4-methyl isobenzofuran-1(3H)-one], the half-inhibitory concentration (IC50) at hROMK (human Kir1.1) came out at 62 nM. In addition, the concentration for half-maximal inhibition (IC50) at hROMK worked out at 13 nM. On hERG, the inhibition at 1 µM is 9%, the inhibition at 3 µM was found to be 20% and the inhibition at 10 µM is 42%.

Regarding `Cc1c(C(O)CN2CCc3nc(-n4ncc5ncccc54)ncc3C2)ccc2c1COC2=O` (single isomer, unassigned) [Example 41-I, 5-(2-(2-(1H-pyrazolo[4,3-b]pyridin-1-yl)-7,8-dihydropyrido[4,3-d]pyrimidin-6(5H)-yl)-1-hydroxyethyl)-4-methylisobenzofuran-1(3H)-one], the IC50 on hROMK (human Kir1.1) came to 60 nM; on hROMK, 23 nM. Also, at hERG, the inhibition at 1 µM is 11%.

Consider `Cc1c(C(O)CN2CCc3nc(-n4cc(C#N)c5ncccc54)ncc3C2)ccc2c1COC2=O` (single isomer, unassigned) [Example 68-I, 1-(6-(2-hydroxy-2-(4-methyl-1-oxo-1,3-dihydroisobenzofuran-5-yl)ethyl)-5,6,7,8-tetrahydropyrido[4,3-d]pyrimidin-2-yl)-1H-pyrrolo[3,2-b]pyridine-3-carbonitrile], for which, at hROMK (human Kir1.1), the IC50 worked out at 29 nM. For the same compound, the IC50 at hROMK turned out to be 23 nM. On hERG, the inhibition at 1 µM was determined as 22%, the inhibition at 3 µM came to 54% and the inhibition at 10 µM is 86%.

In the case of `N#Cc1ccc(Nc2ccc3c(c2)CCN(Cc2ccc4c(c2)COC4=O)C3)cc1F` [Example 4, 2-fluoro-4-((2-((1-oxo-1,3-dihydroisobenzofuran-5-yl)methyl)-1,2,3,4-tetrahydroisoquinolin-6-yl)amino)benzonitrile], the IC50 is 29 nM at hROMK (human Kir1.1) and 31 nM at hROMK. Besides, the inhibition at 1 µM on hERG came to 94%.

In the case of `Cc1c(C(O)CN2CCc3nc(-n4cnc5ncccc54)ncc3C2)ccc2c1COC2=O` (single isomer, unassigned) [Example 53-I, 5-(2-(2-(1H-imidazo[4,5-b]pyridin-1-yl)-7,8-dihydropyrido[4,3-d]pyrimidin-6(5H)-yl)-1-hydroxyethyl)-4-methylisobenzofuran-1(3H)-one], at hROMK (human Kir1.1), the 50% inhibitory concentration (IC50) was found to be 135 nM. Besides, the IC50 on hROMK was determined as 87 nM. Besides, at hERG, the inhibition at 1 µM is 13% and the inhibition at 3 µM was 34%.

Take `Cc1c(C(O)CN2CCc3nc(-n4ccc5c(C#N)cncc54)ncc3C2)ccc2c1COC2=O` (single isomer, unassigned) [Example 42-I, 1-(6-(2-hydroxy-2-(4-methyl-1-oxo-1,3-dihydroisobenzofuran-5-yl)ethyl)-5,6,7,8-tetrahydropyrido[4,3-d]pyrimidin-2-yl)-1H-pyrrolo[2,3-c]pyridine-4-carbonitrile]: the values for the IC50 at hROMK (human Kir1.1) and at hROMK were 70 nM and 34 nM, respectively. For the same compound, the inhibition at 1 µM at hERG stood at 41%.
